Laboratory results published in patent US20080058345A1, “Combination Therapy with Mecamylamine for the Treatment of Mood Disorders” (priority 2004, published 2008).

Tested on: individuals with major depression who are partial responders (based on HAM-D scores) to selective serotonin reuptake inhibitors
Test: 8-week clinical trial of mecamylamine plus SSRI antidepressant versus placebo plus antidepressant
Assay type: in vivo, human
Description: The treatment of depressive symptoms in individuals with major depression who are partial responders (based on HAM-D scores) to selective serotonin reuptake inhibitors (e.g., fluoxetine, sertraline, citalopram, paroxetine, fluvoxamine) was assessed.
Subjects (n=13) were randomly assigned to one of two groups, designated mecamylamine or MEC and Placebo, respectively, for an 8-week clinical trial. Individuals in the MEC group received mecamylamine plus an antidepressant and those in the placebo group received placebo plus an antidepressant Eleven subjects (n=6 randomized to MEC, n=5 to placebo) have completed this 8-week clinical trial and results are presented for those individuals. Two subjects are currently enrolled in the protocol. No clinical or demographic differences have been found between subjects randomized to MEC versus Placebo (Table). […] These preliminary results support our primary hypothesis that central nAChR antagonism augments SSRI-treated refractory major depression.

## CNC1(C)C2CCC(C2)C1(C)C (stereo not shown) [MEC, Bicyclo(2.2.1)heptan-2-amine, N,2,3,3-tetramethyl-]
8-week trial, MEC plus antidepressant versus placebo plus antidepressant
  difference between MEC and Placebo groups on any adverse events: no significant differences
8-week trial, MEC plus antidepressant, placebo 1/5, p=0.06
  adverse event: report of decreased libido (subjects reporting): 4/5
8-week trial, MEC plus antidepressant, placebo 3/5, p=0.11
  adverse event: constipation (subjects reporting): 5/6
End of 8-week trial, MEC plus antidepressant, n=6 completers, placebo 0/5, p=0.02
  subjects classified as responders, as assessed by a 50% reduction in HAM-D scores: Four out of six
